In PubChem BioAssay (NCI):
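Tested at 5 concentrations; 48 h exposure; 96-well plates; endpoints linearly interpolated, else capped at highest concentration. GI50: concentration for 50% inhibition of growth. At the TGI there is no net growth.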

Legend:
Test in all cases: growth of human tumour cells (NCI), 48 h
UACC-257 melanoma = test system: UACC-257 melanoma
BT-549 breast = test system: BT-549 breast
OVCAR-8 ovarian = test system: OVCAR-8 ovarian
SF-268 CNS = test system: SF-268 CNS
HCT-15 colon = test system: HCT-15 colon
HS 578T breast = test system: HS 578T breast
786-0 renal = test system: 786-0 renal
SF-295 CNS = test system: SF-295 CNS
SK-MEL-5 melanoma = test system: SK-MEL-5 melanoma
MCF7 breast = test system: MCF7 breast
HCC-2998 colon = test system: HCC-2998 colon
LOX IMVI melanoma = test system: LOX IMVI melanoma
K-562 leukemia = test system: K-562 leukemia
HT29 colon = test system: HT29 colon
NCI-H522 lung = test system: NCI-H522 lung
UO-31 renal = test system: UO-31 renal
NCI/ADR-RES ovarian = test system: NCI/ADR-RES ovarian
NCI-H226 lung = test system: NCI-H226 lung
A498 renal = test system: A498 renal
HOP-62 NSCLC = test system: HOP-62 NSCLC
SNB-19 CNS = test system: SNB-19 CNS
SF-539 CNS = test system: SF-539 CNS
RXF 393 renal = test system: RXF 393 renal
TK-10 renal = test system: TK-10 renal
CAKI-1 renal = test system: CAKI-1 renal
MALME-3M melanoma = test system: MALME-3M melanoma
A549 NSCLC = test system: A549 NSCLC
SK-OV-3 ovarian = test system: SK-OV-3 ovarian

`COc1ccc(/C(C)=C(\c2ccc(Cl)cc2)c2ccc(OCCN3CCCCC3)cc2)cc1` was tested, and the GI50 (UACC-257 melanoma) was 5.73 µM, the TGI (UACC-257 melanoma) was 10.8 µM and the GI50 (BT-549 breast) was 3.19 µM. For the same molecule, the TGI (BT-549 breast) was 7.55 µM, the GI50 (OVCAR-8 ovarian) was 5.64 µM and the TGI (OVCAR-8 ovarian) was 11.8 µM. The GI50 (SF-268 CNS) was 7.75 µM, the TGI (SF-268 CNS) was 26.8 µM and the GI50 (HCT-15 colon) was 1.16 µM. It also gave a TGI (HCT-15 colon) of 4.56 µM, a GI50 (HS 578T breast) of 5.16 µM and a TGI (HS 578T breast) of 13.3 µM. The GI50 (786-0 renal) was 0.746 µM, the TGI (786-0 renal) was 1.9 µM and the GI50 (SF-295 CNS) was 2.97 µM. It also gave a TGI (SF-295 CNS) of 7.54 µM, a GI50 (SK-MEL-5 melanoma) of 1.57 µM and a TGI (SK-MEL-5 melanoma) of 5.44 µM. For the same molecule, the GI50 (MCF7 breast) was 0.604 µM, the TGI (MCF7 breast) was 5.71 µM and the GI50 (HCC-2998 colon) was 3.84 µM. For the same molecule, the TGI (HCC-2998 colon) was 8.1 µM, the GI50 (LOX IMVI melanoma) was 1.89 µM and the TGI (LOX IMVI melanoma) was 6.2 µM. It also gave a GI50 (K-562 leukemia) of 1.28 µM, a TGI (K-562 leukemia) of 10.4 µM and a GI50 (HT29 colon) of 0.984 µM. The TGI (HT29 colon) was 3.87 µM, the GI50 (NCI-H522 lung) was 4.12 µM and the TGI (NCI-H522 lung) was 8.66 µM. It also gave a GI50 (UO-31 renal) of 3.46 µM, a TGI (UO-31 renal) of 7.4 µM and a GI50 (NCI/ADR-RES ovarian) of 4.79 µM. It also gave a TGI (NCI/ADR-RES ovarian) of 9.86 µM, a GI50 (NCI-H226 lung) of 4.85 µM and a TGI (NCI-H226 lung) of 9.7 µM. It also gave a GI50 (A498 renal) of 4.73 µM, a TGI (A498 renal) of 10.4 µM and a GI50 (HOP-62 NSCLC) of 4.83 µM. It also gave a TGI (HOP-62 NSCLC) of 9.96 µM, a GI50 (SNB-19 CNS) of 5.32 µM and a TGI (SNB-19 CNS) of 12.6 µM. For the same molecule, the GI50 (SF-539 CNS) was 3.54 µM, the TGI (SF-539 CNS) was 7.68 µM and the GI50 (RXF 393 renal) was 2.5 µM. It also gave a TGI (RXF 393 renal) of 7.29 µM, a GI50 (TK-10 renal) of 5.66 µM and a TGI (TK-10 renal) of 13.8 µM. It also gave a GI50 (CAKI-1 renal) of 5.23 µM, a TGI (CAKI-1 renal) of 12.4 µM and a GI50 (MALME-3M melanoma) of 4.01 µM. It also gave a TGI (MALME-3M melanoma) of 8.49 µM, a GI50 (A549 NSCLC) of 4.51 µM and a TGI (A549 NSCLC) of 10.2 µM. The GI50 (SK-OV-3 ovarian) was 6.25 µM and the TGI (SK-OV-3 ovarian) was 12.3 µM.
